Laboratory results: ChEMBL document CHEMBL3046223, “Compounds against inflammation and oxidative insult as potential agents for neurodegenerative disorders” (Med Chem Res, 2012)

Columns and labels:
[1] = tested on: Rattus norvegicus; assay: Anti-inflammatory activity in Rattus norvegicus (rat) ischemia-reperfusion model assessed as reduction of malondialdehyde formation in brain at 0.4 mmol/kg, ip qd for 4 days and dose repeated 2 hr before initiation of ischemia measured 90 min after reperfusion; type: functional
[2] = tested on: Mus musculus; assay: Anti-inflammatory activity in Balb-C Mus musculus (mouse) assessed as inhibition of FCA-induced paw oedema at 0.30 mmol/kg, ip administered 5 min before FCA challenge measured after 3 hr relative to control; type: functional
[3] = tested on: Liver microsome; assay: Antioxidant activity in Rattus norvegicus (rat) liver microsomal fraction assessed as inhibition of lipid peroxidation after 45 min by spectrophotometric analysis; type: functional, microsomes; details: 0.75 h
[4] = tested on: Mus musculus; assay: Anti-inflammatory activity in Balb-C Mus musculus (mouse) assessed as inhibition of FCA-induced paw oedema at 0.15 mmol/kg, ip administered 5 min before FCA challenge measured after 3 hr relative to control; type: functional
[5] = tested on: Rattus norvegicus; assay: Anti-inflammatory activity in Rattus norvegicus Fischer-344 (rat) assessed as inhibition of carrageenan-induced paw oedema at 0.30 mmol/kg, ip administered 5 min before […] measured after 3 hr relative to control; type: functional; details: Fischer-344, ip
[6] = target: T1, Seed linoleate 13S-lipoxygenase-1 (Glycine max, UniProt P08170); assay: Inhibition of Glycine max (soybean) lipoxygenase assessed as formation of 13-hydroperoxylinoleic acid using sodium linoleate as substrate after 7 min
T1 sequence (P08170 whole entry): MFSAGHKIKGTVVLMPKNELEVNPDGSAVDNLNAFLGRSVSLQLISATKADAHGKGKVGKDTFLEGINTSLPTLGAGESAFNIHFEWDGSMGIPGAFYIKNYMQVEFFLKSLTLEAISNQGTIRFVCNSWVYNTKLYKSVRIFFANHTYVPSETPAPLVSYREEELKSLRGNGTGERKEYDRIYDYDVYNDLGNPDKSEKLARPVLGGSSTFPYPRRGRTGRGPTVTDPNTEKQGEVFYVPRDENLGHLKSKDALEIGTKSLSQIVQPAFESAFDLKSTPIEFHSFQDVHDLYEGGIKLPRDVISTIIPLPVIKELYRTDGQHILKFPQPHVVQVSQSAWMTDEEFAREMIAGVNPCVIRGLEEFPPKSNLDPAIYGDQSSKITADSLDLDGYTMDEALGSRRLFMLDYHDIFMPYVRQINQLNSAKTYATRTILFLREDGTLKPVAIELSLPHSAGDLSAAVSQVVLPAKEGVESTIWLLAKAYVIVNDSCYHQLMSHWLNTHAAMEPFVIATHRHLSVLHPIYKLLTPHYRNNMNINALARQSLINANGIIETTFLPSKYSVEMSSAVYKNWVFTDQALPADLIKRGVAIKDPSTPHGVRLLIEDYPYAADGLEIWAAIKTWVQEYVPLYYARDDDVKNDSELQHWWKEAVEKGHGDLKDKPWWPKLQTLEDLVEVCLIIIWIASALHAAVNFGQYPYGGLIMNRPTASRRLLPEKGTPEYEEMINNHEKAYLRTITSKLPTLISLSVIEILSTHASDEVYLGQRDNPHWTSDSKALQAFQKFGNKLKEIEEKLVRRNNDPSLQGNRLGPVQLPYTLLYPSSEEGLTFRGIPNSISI

[7] = Drug uptake in Rattus norvegicus (rat) brain at 0.6 mmol/kg, ip after 60 min by RP-HPLC analysis; type: ADME, organism-based; details: read-out: Drug uptake
[8] = Drug uptake in Rattus norvegicus (rat) brain at 0.6 mmol/kg, ip after 120 min by RP-HPLC analysis; type: ADME, organism-based; details: read-out: Drug uptake
[9] = Drug uptake in Rattus norvegicus (rat) brain at 0.6 mmol/kg, ip after 30 min by RP-HPLC analysis; type: ADME, organism-based; details: read-out: Drug uptake
[10] = target: T2, Prostaglandin G/H synthase 1 (Ovis aries) (UniProt P05979); assay: Inhibition of Ovis aries (sheep) COX1 assessed as formation of PGF2a at 200 uM by enzyme immunoassay
T2 sequence (whole entry): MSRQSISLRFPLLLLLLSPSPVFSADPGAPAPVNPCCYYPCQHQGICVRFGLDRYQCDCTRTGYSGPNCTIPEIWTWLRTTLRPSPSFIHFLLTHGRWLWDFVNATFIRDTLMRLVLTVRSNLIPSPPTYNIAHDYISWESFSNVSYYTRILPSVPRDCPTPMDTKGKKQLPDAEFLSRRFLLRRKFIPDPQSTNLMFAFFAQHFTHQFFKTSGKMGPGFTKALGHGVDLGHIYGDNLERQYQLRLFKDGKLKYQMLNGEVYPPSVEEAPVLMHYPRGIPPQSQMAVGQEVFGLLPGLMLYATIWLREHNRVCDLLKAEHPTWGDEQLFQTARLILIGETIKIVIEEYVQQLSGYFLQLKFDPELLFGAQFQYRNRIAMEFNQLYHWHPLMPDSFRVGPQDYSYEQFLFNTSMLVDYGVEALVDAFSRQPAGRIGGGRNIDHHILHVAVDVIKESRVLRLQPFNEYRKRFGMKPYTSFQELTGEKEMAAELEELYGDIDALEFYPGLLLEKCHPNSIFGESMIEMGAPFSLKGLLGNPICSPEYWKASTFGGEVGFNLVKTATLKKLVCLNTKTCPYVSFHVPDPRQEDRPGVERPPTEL

[11] = tested on: Rattus norvegicus; assay: Gastrointestinal toxicity in Rattus norvegicus (rat) assessed as incidence of melena at 84 umol/kg, sc qd for 4 days; type: organism-based; details: in vivo, 96 h
[12] = Toxicity in Rattus norvegicus (rat) assessed as mortality at 84 umol/kg, sc qd for 4 days; type: organism-based; details: in vivo
[13] = tested on: Rattus norvegicus; assay: Toxicity in rat assessed as body weight change per 100 gram body weight at 84 umol/kg, sc qd for 4 days; type: organism-based; details: in vivo, 96 h
[14] = tested on: Rattus norvegicus; assay: Gastrointestinal toxicity in Rattus norvegicus (rat) assessed as perforating ulcers at 84 umol/kg, sc qd for 4 days; type: organism-based; details: in vivo, 96 h
[15] = Toxicity in Rattus norvegicus (rat) assessed as mortality at 200 umol/kg, sc qd for 4 days; type: organism-based; details: in vivo
[16] = tested on: Rattus norvegicus; assay: Toxicity in Rattus norvegicus (rat) assessed as body weight change per 100 gram body weight at 200 umol/kg, sc qd for 4 days; type: organism-based; details: in vivo, 96 h
[17] = tested on: Rattus norvegicus; assay: Gastrointestinal toxicity in Rattus norvegicus (rat) assessed as incidence of melena at 200 umol/kg, sc qd for 4 days; type: organism-based; details: in vivo, 96 h
[18] = tested on: Rattus norvegicus; assay: Gastrointestinal toxicity in Rattus norvegicus (rat) assessed as perforating ulcers at 200 umol/kg, sc qd for 4 days; type: organism-based; details: in vivo, 96 h
[19] = tested on: Liver microsome; assay: Antioxidant activity in Rattus norvegicus (rat) liver microsomal fraction assessed as inhibition of lipid peroxidation at 1 mM after 45 min by spectrophotometric analysis; type: functional, microsomes
[20] = Ratio of drug level in brain to blood in Rattus norvegicus (rat) at 0.6 mmol/kg, ip after 3 hr by RP-HPLC analysis; type: ADME, organism-based
[21] = Ratio of drug level in brain to blood in Rattus norvegicus (rat) at 0.6 mmol/kg, ip after 2 hr by RP-HPLC analysis; type: ADME, organism-based

CCOC(=O)C(CS)NC(=O)C1CCCN1C(=O)Cc1c(C)n(C(=O)c2ccc(Cl)cc2)c2ccc(OC)cc12 (stereo unspecified)
Activity [1]: 3 nmol/mg | inhibition in vivo at 300 µmol/kg [2]: 44% | IC50 [3]: 390 µM | inhibition in vivo at 150 µmol/kg [4]: 25%

COc1ccc2cc(C(C)C(=O)N3CCCC3C(=O)OCCCc3cccnc3)ccc2c1 (stereo unspecified)
inhibition in vivo at 300 µmol/kg [5]: 24% | IC50 [6]: 46 µM

CCOC(=O)C(CS)NC(=O)C1CCCN1C(=O)C(C)c1ccc(CC(C)C)cc1 (stereo unspecified)
concentration at 1 h [7]: 40800 ng/g | concentration at 2 h [8]: 27800 ng/g | concentration at 0.5 h [9]: 1590 ng/g

COc1ccc2cc([C@H](C)C(=O)O)ccc2c1 [NAPROXEN]
inhibition in vivo at 300 µmol/kg [5]: 51% | inhibition [10]: 52%

COc1ccc2c(c1)c(CC(=O)O)c(C)n2C(=O)c1ccc(Cl)cc1 [INDOMETHACIN]
Activity [11]: 100% | mortality at 96 h [12]: 50% | Activity [13]: -15 g | inhibition in vivo at 150 µmol/kg [4]: 68% | Activity [14]: 80%

CC(C)Cc1ccc(C(C)C(=O)OCCCc2cccnc2)cc1 (stereo unspecified)
inhibition in vivo at 300 µmol/kg [2]: 59% | IC50 [6]: 45 µM

COc1ccc2c(c1)c(CC(=O)N1CCCC1C(=O)Oc1ccc(C)cc1OC)c(C)n2C(=O)c1ccc(Cl)cc1 (stereo unspecified)
inhibition [10]: 16% | Activity [11]: 0% | inhibition in vivo at 300 µmol/kg [2]: 54% | mortality at 96 h [12]: 0% | Activity [13]: 11 g | inhibition in vivo at 150 µmol/kg [4]: 49% | Activity [14]: 0%

CC(C(=O)OCCCc1cccnc1)c1cccc(C(=O)c2ccccc2)c1 (stereo unspecified)
mortality at 96 h [15]: 33% | inhibition in vivo at 300 µmol/kg [5]: 61% | inhibition [10]: 87% | Activity [16]: -13 g | Activity [17]: 60% | IC50 [6]: 145 µM | Activity [18]: 50%

COc1cc(C)ccc1OC(=O)C1CCCN1C(=O)C(C)c1cccc(C(=O)c2ccccc2)c1 (stereo unspecified)
inhibition in vivo at 300 µmol/kg [5]: 13% | IC50 [6]: 60 µM

CCOC(=O)C(CS)NC(=O)C1CCCN1C(=O)C(C)c1cccc(C(=O)c2ccccc2)c1 (stereo unspecified)
inhibition in vivo at 300 µmol/kg [5]: 52% | IC50 [3]: 440 µM | IC50 [6]: 170 µM

CC(C)Cc1ccc(C(C)C(=O)N2CCCC2C(=O)OCCCc2ccccc2)cc1 (stereo unspecified)
inhibition in vivo at 300 µmol/kg [2]: 31% | IC50 [6]: 60 µM

CC(C(=O)O)c1cccc(C(=O)c2ccccc2)c1 (stereo unspecified) [KETOPROFEN]
mortality at 96 h [15]: 50% | inhibition [10]: 86% | Activity [16]: -24 g | Activity [17]: 100% | Activity [18]: 85%

COc1ccc2cc(C(C)C(=O)OCCCc3cccnc3)ccc2c1 (stereo unspecified)
inhibition in vivo at 300 µmol/kg [5]: 27% | inhibition [10]: 71% | IC50 [6]: 28 µM

COc1cc(C)ccc1OC(=O)C(C)c1ccc(CC(C)C)cc1 (stereo unspecified)
inhibition in vivo at 300 µmol/kg [2]: 43% | IC50 [6]: 65 µM

CC(C)Cc1ccc([C@H](C)C(=O)O)cc1 [DEXIBUPROFEN]
inhibition in vivo at 300 µmol/kg [2]: 53%

COc1ccc2cc(C(C)C(=O)N3CCCC3C(=O)Oc3ccc(C)cc3OC)ccc2c1 (stereo unspecified)
inhibition in vivo at 300 µmol/kg [5]: 20% | inhibition [10]: 16%

C[C@H](C(=O)O)c1cccc(C(=O)c2ccccc2)c1 [DEXKETOPROFEN]
inhibition in vivo at 300 µmol/kg [5]: 42%

CC(C)Cc1ccc(C(C)C(=O)N2CCCC2C(=O)NCCS)cc1 (stereo unspecified)
concentration at 1 h [7]: 10200 ng/g | concentration at 2 h [8]: 35200 ng/g | concentration at 0.5 h [9]: 9780 ng/g

CC(C)Cc1ccc(C(C)C(=O)N2CCCC2C(=O)OCCO)cc1 (stereo unspecified)
inhibition in vivo at 300 µmol/kg [2]: 24% | IC50 [6]: 320 µM

CC(C(=O)NCCS)c1cccc(C(=O)c2ccccc2)c1 (stereo unspecified)
inhibition in vivo at 300 µmol/kg [5]: 39% | IC50 [3]: 650 µM

CC(C)Cc1ccc(C(C)C(=O)N2CCCC2C(=O)OCCO[N+](=O)[O-])cc1 (stereo unspecified)
inhibition in vivo at 300 µmol/kg [2]: 62% | inhibition [19]: 14% | IC50 [6]: 240 µM

COc1ccc2cc([C@H](C)C(=O)N3CC(O)CC3C(=O)NCCS)ccc2c1 (stereo partly specified)
concentration at 1 h [7]: 5700 ng/g | Kp at 3 h [20]: 0.004 | concentration at 2 h [8]: 710 ng/g | concentration at 0.5 h [9]: 26600 ng/g | Kp at 2 h [21]: 0.04

COc1ccc2cc(C(C)C(=O)Oc3ccc(C)cc3OC)ccc2c1 (stereo unspecified)
inhibition in vivo at 300 µmol/kg [5]: 40% | IC50 [6]: 90 µM

CCOC(=O)C(CS)NC(=O)C1CCCCN1C(=O)Cc1c(C)[nH]c2ccc(OC)cc12 (stereo unspecified)
IC50 [3]: 8 µM
